Laboratory results reported in ChEMBL document CHEMBL3045895 (Med Chem Res, 2012).
pIC50: −log10 of the molar value. Activity calls are given as the source filed them. No cut-off for these calls is given here.

Tests used:
Urease = Urease (Canavalia ensiformis, UniProt P07374); test: Inhibition of Canavalia ensiformis (jack bean) urease using urea as substrate after 15 min by indophenol-based spectrophotometric analysis
[1] = target: T1, Beta-glucuronidase (Homo sapiens) (UniProt P08236); test: Inhibition of beta-glucuronidase (unknown origin) using p-nitrophenyl-beta-D-glucuronide as substrate at 500 uM incubated for 30 min prior to substrate addition by spectrophotometric analysis
T1 sequence (whole entry): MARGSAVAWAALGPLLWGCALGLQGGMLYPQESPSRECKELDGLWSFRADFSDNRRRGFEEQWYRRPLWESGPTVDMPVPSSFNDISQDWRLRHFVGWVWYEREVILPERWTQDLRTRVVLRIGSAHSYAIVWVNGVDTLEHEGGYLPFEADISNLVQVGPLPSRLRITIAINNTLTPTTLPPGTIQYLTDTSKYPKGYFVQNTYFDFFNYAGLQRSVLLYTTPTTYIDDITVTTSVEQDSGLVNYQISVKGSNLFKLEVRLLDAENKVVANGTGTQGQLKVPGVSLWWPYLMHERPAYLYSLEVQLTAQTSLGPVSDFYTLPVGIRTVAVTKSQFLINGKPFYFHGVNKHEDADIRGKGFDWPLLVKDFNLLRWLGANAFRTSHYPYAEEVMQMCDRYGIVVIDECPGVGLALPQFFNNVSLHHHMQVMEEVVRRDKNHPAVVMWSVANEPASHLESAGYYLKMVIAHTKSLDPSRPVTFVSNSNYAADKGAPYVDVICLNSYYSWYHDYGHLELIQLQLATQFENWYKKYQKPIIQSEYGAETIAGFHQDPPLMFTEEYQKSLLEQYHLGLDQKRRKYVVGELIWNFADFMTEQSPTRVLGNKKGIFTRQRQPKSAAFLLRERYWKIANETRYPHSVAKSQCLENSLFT

[2] = target: Acetylcholinesterase (Homo sapiens) (UniProt P22303); test: Inhibition of acetylcholinesterase (unknown origin) using acetylthiocholine iodide as substrate at 500 uM incubated for 15 min prior to substrate addition measured for 15 min by spectrophotometric analysis
Cholinesterase [3] = target: T2, Cholinesterase (Homo sapiens, UniProt P06276); test: Inhibition of butyrylcholinesterase (unknown origin) using butyrylthiocholine chloride as substrate at 500 uM incubated for 15 min prior to substrate addition measured for 15 min by spectrophotometric analysis
Homo sapiens = organism: Homo sapiens; test: Inhibition of alpha-chymotrypsin (unknown origin) using N-succinyl-phenylalanine-p-nitroanilide as substrate at 500 uM incubated for 25 min prior to substrate by spectrophotometric analysis
[4] = target: Urease (Canavalia ensiformis) (UniProt P07374); test: Inhibition of Canavalia ensiformis (jack bean) urease using urea as substrate at 500 uM after 15 min by indophenol-based spectrophotometric analysis
Cholinesterase [5] = target: T2, Cholinesterase; test: Inhibition of butyrylcholinesterase (unknown origin) using butyrylthiocholine chloride as substrate incubated for 15 min prior to substrate addition measured for 15 min by spectrophotometric analysis
Beta-glucuronidase = target: T3, Beta-glucuronidase (Homo sapiens, UniProt P08236); test: Inhibition of beta-glucuronidase (unknown origin) using p-nitrophenyl-beta-D-glucuronide as substrate incubated for 30 min prior to substrate addition by spectrophotometric analysis
T3 sequence (P08236 whole entry): T1 sequence (whole entry)

Sequence of Acetylcholinesterase (Homo sapiens) (P22303 whole entry): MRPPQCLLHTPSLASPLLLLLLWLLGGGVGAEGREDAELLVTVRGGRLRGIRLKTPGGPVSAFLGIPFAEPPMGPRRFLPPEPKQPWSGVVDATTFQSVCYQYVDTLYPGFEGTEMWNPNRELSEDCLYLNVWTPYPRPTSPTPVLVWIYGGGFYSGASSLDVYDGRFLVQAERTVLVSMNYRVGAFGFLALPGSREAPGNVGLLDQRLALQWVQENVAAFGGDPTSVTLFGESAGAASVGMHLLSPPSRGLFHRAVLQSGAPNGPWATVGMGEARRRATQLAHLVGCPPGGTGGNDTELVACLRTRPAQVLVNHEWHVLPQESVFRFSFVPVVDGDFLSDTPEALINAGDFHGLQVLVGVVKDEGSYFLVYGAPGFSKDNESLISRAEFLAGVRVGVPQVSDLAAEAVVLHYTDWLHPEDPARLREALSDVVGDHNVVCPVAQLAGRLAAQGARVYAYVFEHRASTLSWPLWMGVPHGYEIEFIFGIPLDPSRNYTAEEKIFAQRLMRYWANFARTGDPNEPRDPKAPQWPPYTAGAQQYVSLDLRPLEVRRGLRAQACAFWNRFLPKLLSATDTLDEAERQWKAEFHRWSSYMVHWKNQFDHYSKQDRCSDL
Sequence of Urease (P07374 whole entry): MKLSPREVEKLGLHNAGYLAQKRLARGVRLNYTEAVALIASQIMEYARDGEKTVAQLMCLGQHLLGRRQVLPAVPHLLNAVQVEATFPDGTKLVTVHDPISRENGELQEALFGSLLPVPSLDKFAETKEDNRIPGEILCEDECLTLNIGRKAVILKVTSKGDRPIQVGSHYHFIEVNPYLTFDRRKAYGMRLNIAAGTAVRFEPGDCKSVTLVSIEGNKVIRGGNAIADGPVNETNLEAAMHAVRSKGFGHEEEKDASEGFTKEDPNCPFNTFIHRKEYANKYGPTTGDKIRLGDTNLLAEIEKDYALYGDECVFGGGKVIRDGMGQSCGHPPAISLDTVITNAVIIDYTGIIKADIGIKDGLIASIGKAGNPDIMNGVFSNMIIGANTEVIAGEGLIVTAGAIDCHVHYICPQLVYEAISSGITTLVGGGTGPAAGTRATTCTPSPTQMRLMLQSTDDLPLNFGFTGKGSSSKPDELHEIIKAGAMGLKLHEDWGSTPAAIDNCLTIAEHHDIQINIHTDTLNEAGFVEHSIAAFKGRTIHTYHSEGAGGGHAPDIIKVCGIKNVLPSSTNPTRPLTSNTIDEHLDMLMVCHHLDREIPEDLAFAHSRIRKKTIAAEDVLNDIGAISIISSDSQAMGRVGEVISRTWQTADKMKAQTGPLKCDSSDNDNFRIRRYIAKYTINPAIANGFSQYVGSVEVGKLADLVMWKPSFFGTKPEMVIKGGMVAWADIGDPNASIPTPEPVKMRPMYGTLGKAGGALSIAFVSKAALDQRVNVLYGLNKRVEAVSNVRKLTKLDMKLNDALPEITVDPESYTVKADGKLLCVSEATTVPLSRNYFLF
T2 sequence (P06276 whole entry): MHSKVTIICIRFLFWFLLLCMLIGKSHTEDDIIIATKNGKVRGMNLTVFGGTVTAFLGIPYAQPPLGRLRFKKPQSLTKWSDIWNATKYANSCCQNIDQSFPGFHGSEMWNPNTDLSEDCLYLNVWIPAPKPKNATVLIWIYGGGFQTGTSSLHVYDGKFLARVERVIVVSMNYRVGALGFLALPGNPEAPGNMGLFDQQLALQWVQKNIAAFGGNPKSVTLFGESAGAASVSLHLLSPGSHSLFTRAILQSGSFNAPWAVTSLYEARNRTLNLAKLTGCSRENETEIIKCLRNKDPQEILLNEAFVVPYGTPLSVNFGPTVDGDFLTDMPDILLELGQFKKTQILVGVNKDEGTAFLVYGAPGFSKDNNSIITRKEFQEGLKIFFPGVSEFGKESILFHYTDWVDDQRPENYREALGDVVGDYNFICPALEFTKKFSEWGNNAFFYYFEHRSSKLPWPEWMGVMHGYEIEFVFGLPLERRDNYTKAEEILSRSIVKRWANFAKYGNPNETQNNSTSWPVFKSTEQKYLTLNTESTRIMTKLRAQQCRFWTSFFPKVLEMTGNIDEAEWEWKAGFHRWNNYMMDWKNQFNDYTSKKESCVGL
Sequence of Urease (Canavalia ensiformis) (P07374 whole entry, looked up): as the sequence (P07374 whole entry) above

SMILES	pIC50 (Urease)	inhibition [1]	inhibition [2]	inhibition (Cholinesterase [3])	inhibition (Homo sapiens)	inhibition [4]	pIC50 (Cholinesterase [5])	pIC50 (Beta-glucuronidase)
Cc1cc(C)n(CO)n1	4.03	inactive	inactive	inactive	inactive	–	–	–
Cc1cc(CN(CCO)Cc2cc(C)n(C)n2)nn1C	–	inactive	inactive	–	inactive	inactive	4.17	–
Cc1cc(C)n(CN(CCO)Cn2nc(C)cc2C)n1	4.35	inactive	inactive	inactive	inactive	–	–	–
Cc1cc(C)n(CN(Cn2nc(C)cc2C)C2CCCCC2)n1	4.36	–	inactive	inactive	inactive	–	–	3.34
